Experimental data: ChEMBL document CHEMBL1158760, “Chromenes from the brown alga Sargassum siliquastrum” (J Nat Prod, 2005)

Target: Cholinesterase (Homo sapiens) (UniProt P06276)
Assay: Inhibition of butylcholine esterase at 100 ug/mL

Cholinesterase (Homo sapiens), sequence (P06276 whole entry): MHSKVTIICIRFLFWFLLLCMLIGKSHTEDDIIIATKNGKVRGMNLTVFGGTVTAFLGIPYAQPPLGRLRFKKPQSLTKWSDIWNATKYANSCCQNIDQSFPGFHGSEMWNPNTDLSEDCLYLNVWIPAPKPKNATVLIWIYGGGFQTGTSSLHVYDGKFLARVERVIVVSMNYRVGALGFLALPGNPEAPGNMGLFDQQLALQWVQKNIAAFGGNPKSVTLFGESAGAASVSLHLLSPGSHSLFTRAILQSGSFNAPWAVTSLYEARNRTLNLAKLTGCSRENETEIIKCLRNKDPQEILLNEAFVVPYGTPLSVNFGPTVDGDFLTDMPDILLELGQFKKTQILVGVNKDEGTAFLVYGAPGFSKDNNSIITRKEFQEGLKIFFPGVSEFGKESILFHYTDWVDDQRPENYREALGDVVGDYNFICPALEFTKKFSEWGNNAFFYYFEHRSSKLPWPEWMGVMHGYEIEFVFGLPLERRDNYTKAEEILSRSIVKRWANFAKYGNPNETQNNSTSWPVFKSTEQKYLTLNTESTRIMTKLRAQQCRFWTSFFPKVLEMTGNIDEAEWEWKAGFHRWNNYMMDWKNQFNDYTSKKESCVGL

| Compound | inhibition [%] |
| --- | --- |
| CC(C)=CC(C(=O)O)/C(C)=C/CC/C(C)=C/CC[C@]1(C)CCc2cc(O)cc(C)c2O1 (some centres not stated) | 80 |
| CC(C)=C[C@@H](O)C(=O)/C(C)=C/CC/C(C)=C/CC[C@]1(C)CCc2cc(O)cc(C)c2O1 | 82.7 |
